Data: PMC12301034, “Design and Synthesis of Boronic Chalcones with Dual Anticancer and Anti-Inflammatory Activity” (Molecules, 2025)
Where two headings read alike, the source gives them in different places.

What was measured:
[1] = reference compounds for calibration curve; cited from earlier work
SCC-25 cells = test: MTT cytotoxicity assay on SCC-25 cells; type: cell-based, human; settings: for IC50: MTT, 24 h incubation, mean SEM of three experiments; for SI = IC50 NOK-si/IC50 SCC-25: selectivity index
From the text: (§1) The SCC-25 (ATCC® CRL-1628™), Detroit-562 (ATCC® CCL-138™), and THP-1 (ATCC® TIB-202™) cells were purchased from Rio de Janeiro Cell Bank (Duque de Caxias, Brazil), and NOK-si was kindly provided by Prof. Carlos Rossa from the School of Dentistry—UNESP. All the cells were cultivated according to standard conditions. Human colorectal adenocarcinoma HCT116 cell lines (ATCC® CCL-247™) expressing p53 and its p53-null isogenic derivative (HCT116 p53^−/−) were provided by B. Vogelstein (The Johns Hopkins Kimmel Cancer Center, Baltimore, MD, USA).
(§2) Cells (NOK-si, SCC-25, and Detroit-562) were grown in a DMEM medium (Dulbecco’s Modified Eagle Medium), supplemented according to the needs of each lineage, as recommended by its cell banks, with 2 mM L-glutamine, 10% or 20% fetal bovine serum (FBS), 1% antibiotic–antimycotic solution (5 mg/mL penicillin, 5 mg/mL streptomycin, and 10 mg/mL neomycin), 4.5 g/L of glucose, and 3.7 g/L of sodium bicarbonate (NaHCO3). All cell lines were cultured in flasks at 37 °C in 5% carbon dioxide (CO2) and 95% of relative humidity. The assays were conducted between the third- and the seventh-cell passage, with sub-cultures every 3–4 days to maintain exponential growth. The cell viability was checked using the trypan blue dye exclusion assay for all experiments, where over 95% of the cells were viable at the beginning of the tests. NOK-si, SCC-25, and Detroit-562 were initially thawed and cultured in 25 cm^2 cell culture flasks. Cell growth was monitored using a microscope, and the culture medium was changed periodically. Upon reaching confluency, cell dissociation was achieved by adding 5 mL of trypsin (Sigma-Aldrich, St Louis, MO, USA) and incubating the bottles in a CO2 incubator for 10 min. Subsequently, the cells were transferred to 15 mL Falcon tubes and centrifuged at 2000 rpm for 10 min. Cell counting was performed using a Countess II FL automated cell counter (ThermoFischer, Waltham, MA, USA). The cells were seeded at a density of 30,000 cells per well in 96-well plates. The plates were then incubated at 37 °C in 5% CO2 for 24 h. Following this, test compounds were incubated for another 24 h at 10 different concentrations: 50, 25, 12.5, 6.25, 3.12, 1.56, 0.78, 0.39, 0.19, and 0.097 µg/mL. After the specified time, MTT reagent (3 mg/mL) (Sigma-Aldrich, St Louis, MO, USA) dissolved in phenol-free RPMI 1640 was added and incubated for 4 h. The formed MTT crystals were solubilized using 2-propanol P.A. (Sigma-Aldrich, St Louis, MO, USA) with agitation. Absorbance was read at 562 nm using an EZ Read 400 microplate reader (Biochrom, Cambridge, UK) and ADAP 2.0 Biochrom software (version 2.0). IC50 values and graphs were calculated using Excel and Prism software (version 10.4.1). The MTT assay results were evaluated for normality using the Shapiro–Wilk test, followed by one-way ANOVA with Tukey’s post hoc test at a significance level of 5%.

NOK-si cells = test: MTT cytotoxicity assay on NOK-si normal oral keratinocytes; type: cell-based; settings: 24 h incubation; for CC50: Keratinocyte, read-out: NOK-si IC50
From the text: as §1, §2

[2] = Partition coefficient (Log P), OECD 117 HPLC method
HCT116 p53^+/+ cells = test: SRB cytotoxicity assay on HCT116 p53+/+ cells; type: cell-based, human
From the text: as §1
(§3) HCT p53^+/+ and HCT p53^−/− cell lines were seeded in 96-well plates, with a concentration of 5000 cells/well, and allowed to adhere overnight. Afterwards, they were treated with serial dilutions of the compounds for an additional 48 h (compounds were prepared at 30 mM, in DMSO, and tested with a starting concentration of 50μM and 15 μM). Cells passed then through a series of essential steps (fixation with 10% trichloroacetic acid, for 1 h at 4 °C; staining with 0.4% sulforhodamine B (SRB); wash with 1% acetic acid; and solubilization with 10 mM Tris-Base); subsequently, absorbance was measured at 510 nm in a microplate reader (Biotek Instruments Inc., Synergy, MX, USA). IC50 values were determined using GraphPad Prism software, Version 7.0 (La Jolla, CA, USA).

HCT116 p53^−/− cells = test: SRB cytotoxicity assay on HCT116 p53-/- cells; type: cell-based, human
From the text: as §1, §3

TNF = test: Anti-inflammatory assay, TNF in LPS-stimulated THP-1 cells (CBA); type: cell-based, human; settings: 2 and 4 µg/mL, 24 h
Procedure: For this assay, THP-1 (BCRJ cód. 0234) cells were cultured in Roswell Park Memorial Institute (RPMI-1640, Sigma-Aldrich; Saint Louis, MO, USA) media supplemented with 2 mM L-glutamine, 1 mM sodium pyruvate, 1.50 g/L of sodium bicarbonate, and 10% fetal bovine serum. For obtaining Macrophage-like cells, 250,000 cells per well were plated in a 24-well cell culture plate. A total of 20 ng/mL of Forbol 12-miristato-13-acetato (PMA) was added to each well, and the cells were incubated for 48 h at 37 °C with 5% CO2. After the 48 h, the wells were washed with 1X PBS, and fresh RPMI-1640 media was added. The cells were then incubated for 24 h at 37 °C and 5% CO2. For the cell’s stimulations, after the 24 h, the well was washed with PBS and fresh RPMI1640 media without fetal bovine serum added. For the positive controls of the assay, 3 wells were stimulated with LPS (1 ng/µL) diluted in the same volume and media used for the drugs stimulation. Two different concentrations (2 and 4 µg/mL) were evaluated for each molecule, which were determined to be non-cytotoxic through a cell viability assay. After a 24 h period, the supernatant was removed and used in the cytokine quantification assay. A kit for inflammatory cytokines, BD® Cytometric Bead Array CBA Human Inflammatory, was employed for this assay, containing the following human cytokines: IL-8, IL-1β, IL-6, and TNF. Standard cytokines were prepared in 9 different concentrations: 1:256, 1:128, 1:64, 1:32, 1:16, 1:8, 1:4, 1:2, and 1:1 (“top standard”). Analysis was performed using a Flow Cytometer FACS Aria Fusion BD (Bioscence, Houston, TX, USA). Data analysis was conducted using Prism software (version 10.4.1).

IL-6 = test: Anti-inflammatory assay, IL-6 in LPS-stimulated THP-1 cells (CBA); type: cell-based, human; settings: 2 and 4 µg/mL, 24 h
Procedure: (§4) For this assay, THP-1 (BCRJ cód. 0234) cells were cultured in Roswell Park Memorial Institute (RPMI-1640, Sigma-Aldrich; Saint Louis, MO, USA) media supplemented with 2 mM L-glutamine, 1 mM sodium pyruvate, 1.50 g/L of sodium bicarbonate, and 10% fetal bovine serum. For obtaining Macrophage-like cells, 250,000 cells per well were plated in a 24-well cell culture plate. A total of 20 ng/mL of Forbol 12-miristato-13-acetato (PMA) was added to each well, and the cells were incubated for 48 h at 37 °C with 5% CO2. After the 48 h, the wells were washed with 1X PBS, and fresh RPMI-1640 media was added. The cells were then incubated for 24 h at 37 °C and 5% CO2. For the cell’s stimulations, after the 24 h, the well was washed with PBS and fresh RPMI1640 media without fetal bovine serum added. For the positive controls of the assay, 3 wells were stimulated with LPS (1 ng/µL) diluted in the same volume and media used for the drugs stimulation. Two different concentrations (2 and 4 µg/mL) were evaluated for each molecule, which were determined to be non-cytotoxic through a cell viability assay. After a 24 h period, the supernatant was removed and used in the cytokine quantification assay. A kit for inflammatory cytokines, BD® Cytometric Bead Array CBA Human Inflammatory, was employed for this assay, containing the following human cytokines: IL-8, IL-1β, IL-6, and TNF. […]

IL-1β = test: Anti-inflammatory assay, IL-1β in LPS-stimulated THP-1 cells (CBA); type: cell-based, human; settings: 2 and 4 µg/mL, 24 h
Procedure: as §4

Detroit-562 cells = test: MTT cytotoxicity assay on Detroit-562 cells; type: cell-based; settings: Homo sapiens; MTT, 24 h incubation, Detroit-562 metastatic pharyngeal cancer model
From the text: as §1
Cells (NOK-si, SCC-25, and Detroit-562) were grown in a DMEM medium (Dulbecco’s Modified Eagle Medium), supplemented according to the needs of each lineage, as recommended by its cell banks, with 2 mM L-glutamine, 10% or 20% fetal bovine serum (FBS), 1% antibiotic–antimycotic solution (5 mg/mL penicillin, 5 mg/mL streptomycin, and 10 mg/mL neomycin), 4.5 g/L of glucose, and 3.7 g/L of sodium bicarbonate (NaHCO3). All cell lines were cultured in flasks at 37 °C in 5% carbon dioxide (CO2) and 95% of relative humidity. The assays were conducted between the third- and the seventh-cell passage, with sub-cultures every 3–4 days to maintain exponential growth. The cell viability was checked using the trypan blue dye exclusion assay for all experiments, where over 95% of the cells were viable at the beginning of the tests. NOK-si, SCC-25, and Detroit-562 were initially thawed and cultured in 25 cm^2 cell culture flasks. Cell growth was monitored using a microscope, and the culture medium was changed periodically. […] Absorbance was read at 562 nm using an EZ Read 400 microplate reader (Biochrom, Cambridge, UK) and ADAP 2.0 Biochrom software (version 2.0). IC50 values and graphs were calculated using Excel and Prism software (version 10.4.1). The MTT assay results were evaluated for normality using the Shapiro–Wilk test, followed by one-way ANOVA with Tukey’s post hoc test at a significance level of 5%.

[3] = Homo sapiens, HCT-116, 48 h of treatment
[4] = 48 h of treatment, read-out: HCT p53^+/+ IC50
[5] = 48 h of treatment, read-out: HCT p53^−/− IC50

Compound | chromatographic logP [2] | IC50 (SCC-25 cells; Homo sapiens, SCC-25) [µM] | CC50 (NOK-si cells) [µM] | SI = IC50 NOK-si/IC50 SCC-25 (SCC-25 cells) | other results
Clc1ccc(C(c2ccc(Cl)cc2)C(Cl)(Cl)Cl)cc1 [DDT] |  |  |  |  | log P of reference compounds [1]: 6.5
Nc1ccccc1 [aniline] |  |  |  |  | log P of reference compounds [1]: 0.9
COc1cccc(C(=O)/C=C/c2ccccc2)c1 [Compound 1] | 3.73 | 24.9 ± 1.09 | 101.5 ± 0.17 | 4.08 | IC50 (HCT116 p53^+/+ cells; [3]): 6.83 ± 1.15 µM; IC50 (HCT116 p53^−/− cells; [3]): 7.56 ± 0.4 µM; reduction of TNF levels (TNF): lower effectiveness; reduction of IL-6 levels (IL-6): lower effectiveness; reduction of IL-1β levels (IL-1β): comparable efficacy in reducing cytokine levels relative to LPS-stimulated cells
(E)-(3-(3-(2-bromo-4-hydroxyphenyl)-3-oxoprop-1-en-1-yl)phenyl)boronic acid [Compound 7] |  |  |  | 1.31 | IC50 (SCC-25 cells): 41.1 ± 4.62 µM; NOK-si IC50 (NOK-si cells): 54.0 ± 10.98 µM; IC50 (HCT116 p53^+/+ cells; [4]): 3.63 ± 0.4 µM; IC50 (HCT116 p53^−/− cells; [5]): 4.2 ± 0.35 µM
(E)-(3-(3-(2-bromo-4-methoxyphenyl)-3-oxoprop-1-en-1-yl)phenyl)boronic acid [Compound 8] |  |  |  | 0.82 | IC50 (SCC-25 cells): 33.4 ± 1.25 µM; NOK-si IC50 (NOK-si cells): 27.4 ± 3.05 µM; IC50 (HCT116 p53^+/+ cells; [4]): 2.06 ± 0.45 µM; IC50 (HCT116 p53^−/− cells; [5]): 1.7 ± 0.72 µM
O=c1[nH]cc(F)c(=O)[nH]1 [Compound 5-FU, 5-fluorouracil, reference compound] |  | 1800 | 1800 ± 27.7 | lacked selectivity | 

Now from value to compound, other results behind:

chromatographic logP [2] | Compound | IC50 (SCC-25 cells; Homo sapiens, SCC-25) [µM] | CC50 (NOK-si cells) [µM] | SI = IC50 NOK-si/IC50 SCC-25 (SCC-25 cells) | other results
1.49 | Nc1cccc(C(=O)/C=C/c2cccc(B(O)O)c2)c1 [Compound 3, (E)-(3-(3-(3-aminophenyl)-3-oxoprop-1-en-1-yl)phenyl)boronic acid] | 45.2 ± 13.7 | 36.2 ± 10.7 |  | 
1.64 | O=C(/C=C/c1ccc(B(O)O)cc1)c1cccc(O)c1 [Compound 10, (E)-(4-(3-(3-hydroxyphenyl)-3-oxoprop-1-en-1-yl)phenyl)boronic acid] | 43.8 ± 4.43 | 25.7 ± 11.6 | 0.59 | 
2.68 | O=C(/C=C/c1cccc(B(O)O)c1)c1ccccc1 [Compound 2, (E)-(3-(3-oxo-3-phenylprop-1-en-1-yl)phenyl)boronic acid] | 134 ± 12.3 | 133 ± 3.25 | 1.00 | IC50 (HCT116 p53^+/+ cells; [3]): 4.4 ± 0.53 µM; IC50 (HCT116 p53^−/− cells; [3]): 3.63 ± 0.47 µM
2.3 | COc1ccc(C(=O)/C=C/c2cccc(B(O)O)c2)cc1OC [Compound 6, (E)-(3-(3-(3,4-dimethoxyphenyl)-3-oxoprop-1-en-1-yl)phenyl)boronic acid] | 27.2 ± 3.84 | 20.8 ± 2.17 | 0.77 | 
2.81 | COc1cccc(C(=O)/C=C/c2ccc(B(O)O)cc2)c1 [Compound 11, (E)-(4-(3-(3-methoxyphenyl)-3-oxoprop-1-en-1-yl)phenyl)boronic acid] | 65.9 ± 11 | 96.2 ± 21.3 | 1.46 | IC50 (HCT116 p53^+/+ cells; [3]): 3.96 ± 0.55 µM; IC50 (HCT116 p53^−/− cells; [3]): 3.8 ± 0.26 µM
1.18 | Nc1cccc(C(=O)/C=C/c2ccc(B(O)O)cc2)c1 [Compound 9, (E)-(4-(3-(3-aminophenyl)-3-oxoprop-1-en-1-yl)phenyl)boronic acid] | 108 ± 22.5 | 74.6 ± 15 | 0.69 | 
1.81 | O=C(/C=C/c1cccc(B(O)O)c1)c1cccc(O)c1 [Compound 4, (E)-(3-(3-(3-hydroxyphenyl)-3-oxoprop-1-en-1-yl)phenyl)boronic acid] | 9.8 ± 1 | 18.5 ± 4.43 | 1.88 | IC50 (Detroit-562 cells): 31.6 ± 3.13 µM; IC50 (HCT116 p53^+/+ cells; [3]): 2.33 ± 0.2 µM; IC50 (HCT116 p53^−/− cells; [3]): 2.16 ± 0.25 µM
2.16 | COc1ccc(C(=O)/C=C/c2ccc(B(O)O)cc2)cc1OC [Compound 12, (E)-(4-(3-(3,4-dimethoxyphenyl)-3-oxoprop-1-en-1-yl)phenyl)boronic acid] | 38.4 ± 1.63 | 29.5 ± 6.08 | 0.77 | 
